{"source": "patent US20060013775A1", "about": "“Use of ppar activators for the treatment of pulmonary fibrosis” (priority 2001, published 2006)", "test_system": "Primary human lung fibroblasts", "test": "α-SMA positive cell (myofibroblast) count in primary lung fibroblast strains from ILD patients", "assay_type": "cell-based", "conditions": "for percentage of α-SMA cells (α-SMA positive cells as a percentage of total cells): pioglitazone 3 μM, 3 days; for percentage of α-SMA cells: 10 days, vehicle 16.5 (SEM 2.7), n=4", "description": "Primary human lung fibroblasts were derived from patients with ILD (Idiopathic Pulmonary Fibrosis or Chronic Hypersensitivity Pneumonitis). Patients had clinical, functional and radiologic features which fulfil the diagnostic criteria for an ILD. Briefly, they had progressive dyspnea, bilateral reticulonodular images on chest roentgenogram, restrictive lung functional impairment, with decreased lung volumes and compliance, and hypoxemia at rest that worsened with exercise. The methods used to isolate and culture the lung fibroblasts and count cells are described in Wang et al, Am. J. Physiol. Lung 277:L1158-1164 (1999). In brief, lung fibroblasts were isolated by trypsin digestion of tissues minced to 1 mm^2 fragments. Fibroblast/myofibroblast strains were established in Dulbecco's modified Eagle's medium (or in Hams F-12 medium) supplemented with 10% fetal calf serum, 200 U/ml penicillin, and […] streptomycin, and were cultured in 24-well plates. All cells were cultured at 37° C. in 95% air-5% carbon dioxide. For these experiments, 2 strains were used. In order to quantify myofibroblast numbers, the myofibroblast marker alpha-smooth muscle actin (α-SMA) was measured. […] In a first experiment, the 2 strains were grown to 70-80% confluence. The cells were exposed to pioglitazone at 3 μM or drug vehicle for 3 days, after which the number of α-SMA positive cells was quantified (sample size 24) as a percentage of total cells. For one strain, the percentage of α-SMA cells was 27 (standard error mean 3.7) with control and 17 (standard error mean 2.5) in the presence of 3 μM pioglitazone. The drug effect was statistically significant (P≦0.01 Student-Newman-Keuls Multiple Comparisons Test). For the second strain, the respective values were 30.6 (standard error of mean 2.7) and 26 (standard error of mean 2.9) although the difference was not statistically significant. In a second experiment, the effect of pioglitazone on the second strain was studied again, but the exposure time was increased to 10 days and the effects of lower and higher concentrations (1 μM and 10 μM) were studied. After 10 days treatment with vehicle, the percentage of α-SMA cells was 16.5 (standard error of mean 2.7); after 10 days treatment with pioglitazone at 1 μM the percentage was 15.3 (standard error of mean 1.8); and after treatment with pioglitazone at 10 μM the percentage of α-SMA cells was 7.4 (standard error of mean 1.8) (all n=4). The reduction in α-SMA cells by 10 μM pioglitazone was significant (P≦0.05 Dunnett Multiple Comparisons Test).", "data": [{"smiles": "CCc1ccc(CCOc2ccc(CC3SC(=O)NC3=O)cc2)nc1", "note": "(stereo not shown) [pioglitazone]", "values": [{"measurement": "percentage of α-SMA cells (α-SMA positive cells as a percentage of total cells)", "setting": "first strain, control 27 (SEM 3.7), statistically significant P≦0.01, sample size 24", "value": "17 (standard error mean 2.5) percentage"}, {"measurement": "percentage of α-SMA cells", "setting": "second strain, pioglitazone 1 μM", "value": "15.3 (standard error of mean 1.8) percentage"}, {"measurement": "percentage of α-SMA cells (α-SMA positive cells as a percentage of total cells)", "setting": "second strain, control 30.6 (SEM 2.7), difference not statistically significant", "value": "26 (standard error of mean 2.9) percentage"}, {"measurement": "percentage of α-SMA cells", "setting": "second strain, pioglitazone 10 μM, significant P≦0.05", "value": "7.4 (standard error of mean 1.8) percentage"}]}]}
